Data as given in ChEMBL document CHEMBL1201862, “PubChem BioAssay data set” (2004).
Activity calls are given as the source filed them.

Tests used:
Candida albicans = assay: antifungal activity against resistant Candida strain – CaCi-8, fluconazole, Alamar Blue, dry powder, dose response (AID 488807); format: functional, organism-based
NIH3T3 = assay: mammalian cell viability counter-check – Alamar Blue, fluconazole, dry powder, cytotoxicity control for antifungal drug resistance project, dose response (AID 488809); format: functional, cell-based; settings: Mus musculus
Hexokinase-1 = Hexokinase-1 (Homo sapiens, UniProt P19367); assay: SAR analysis of small molecule inhibitors of hexokinase domain containing I (HKDC1) in the hexokinase 1 selectivity assay. [Related pubchem assays (depositor defined):AID493160, AID493190]; format: functional
Hexokinase HKDC1 = Hexokinase HKDC1 (Homo sapiens, UniProt Q2TB90); assay: SAR analysis of small molecule inhibitors of hexokinase domain containing I (HKDC1). [Related pubchem assays (depositor defined):AID493160, AID493190]; format: functional
[1] = Luminescence Cell-Based Dose Confirmation HTS to Identify Activators of 5'UTR Stem-Loop Driven Alpha-Synuclein mRNA Translation in H4 Neuroglioblastoma Cells. [Related pubchem assays: 1829 (Project Summary), 1814 (Primary HTS)]; format: functional
[2] = Luminescence Cell-Based Dose Response HTS to Identify Activators of Luciferase Translation or Activity in H4 […] Cells. [Related pubchem assays: 1829 (Project Summary), 1814 (Primary HTS)]; format: functional
[3] = tested on: Streptococcus sp. 'group A'; assay: Streptococcus pyogenes SK(-)GAS viability under kanamycin – luminescence, BacTiterGlo, confirmation, counter-screen for streptokinase expression inhibitor project, dose response (AID 1900); format: functional, organism-based
Streptokinase A = molecular target: T1, Streptokinase A (Streptococcus pyogenes serotype M1, UniProt P10520); assay: viability-normalized secreted streptokinase activity reduction – plasminogen activation absorbance, OD405, dose response (AID 1914); format: functional, Streptococcus pyogenes M1 GAS;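 also: secreted streptokinase activity via plasminogen activation per viability signal from cell pellet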
T1 sequence (P10520 whole entry): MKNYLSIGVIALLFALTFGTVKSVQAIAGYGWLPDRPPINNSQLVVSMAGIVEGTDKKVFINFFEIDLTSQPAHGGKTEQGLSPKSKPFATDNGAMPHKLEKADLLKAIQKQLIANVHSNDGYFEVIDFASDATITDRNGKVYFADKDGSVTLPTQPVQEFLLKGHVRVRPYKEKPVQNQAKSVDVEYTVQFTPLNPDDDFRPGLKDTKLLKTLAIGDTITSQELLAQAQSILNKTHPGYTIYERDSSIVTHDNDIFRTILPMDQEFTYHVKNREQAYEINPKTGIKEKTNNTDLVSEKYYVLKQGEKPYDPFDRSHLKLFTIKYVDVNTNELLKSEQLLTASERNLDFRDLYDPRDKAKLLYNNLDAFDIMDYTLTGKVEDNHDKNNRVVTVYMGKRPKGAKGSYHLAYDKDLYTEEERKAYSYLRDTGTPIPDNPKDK

Streptococcus = assay: GAS UMAA2166 growth inhibition – luminescence, BacTiterGlo, counter-screen for streptokinase expression inhibitor project, dose response (AID 1915); format: functional, organism-based;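 also: potency for reduction of bacterial viability or growth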
A-375 [4] = assay: MITF: Counter assay: A375 proliferation Measured in Cell-Based System Using Plate Reader - 2084-03_Inhibitor_Dose_DryPowder_Activity. [Related pubchem assays (depositor defined):AID488944]; format: functional; settings: Homo sapiens
A-375 [5] = assay: proliferation inhibition in MITF-low A375 cells – cell-based, cherry-pick samples, set 2, counter-screen for MITF modulator project, dose response (AID 540335); format: functional; settings: Homo sapiens
HEK293 = assay: EBV LMP1 TES2 canonical NF-kB signalling blockers – cell-based, HEK293, luciferase, cherry-pick, dose response (AID 588343); format: functional; settings: Homo sapiens
cells = format: functional, cell-based
[6] = molecular target: T2, Nuclear receptor subfamily 0 group B member 1 (Homo sapiens, UniProt P51843); format: functional, cell-based;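 also: HEK293T cells transfected with SF-1 and DAX-1 plus StAR promoter luciferase reporter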
T2 sequence (P51843 whole entry): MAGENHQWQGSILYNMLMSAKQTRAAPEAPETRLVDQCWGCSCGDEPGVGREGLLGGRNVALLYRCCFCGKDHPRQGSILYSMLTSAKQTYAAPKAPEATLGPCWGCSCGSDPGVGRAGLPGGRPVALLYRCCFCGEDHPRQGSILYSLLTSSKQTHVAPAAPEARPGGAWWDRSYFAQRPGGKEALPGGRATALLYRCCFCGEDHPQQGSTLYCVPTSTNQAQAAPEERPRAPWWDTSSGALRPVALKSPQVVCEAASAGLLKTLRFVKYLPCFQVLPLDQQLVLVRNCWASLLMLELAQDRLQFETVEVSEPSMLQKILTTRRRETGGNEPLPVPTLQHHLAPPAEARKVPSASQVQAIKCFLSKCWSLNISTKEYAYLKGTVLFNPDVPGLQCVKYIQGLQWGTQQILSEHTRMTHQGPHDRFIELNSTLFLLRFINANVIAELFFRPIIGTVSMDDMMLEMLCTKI

Escherichia coli = assay: microbe, parasite or virus in culture

Hexokinase-1, sequence (P19367 whole entry, the tested form may be a part): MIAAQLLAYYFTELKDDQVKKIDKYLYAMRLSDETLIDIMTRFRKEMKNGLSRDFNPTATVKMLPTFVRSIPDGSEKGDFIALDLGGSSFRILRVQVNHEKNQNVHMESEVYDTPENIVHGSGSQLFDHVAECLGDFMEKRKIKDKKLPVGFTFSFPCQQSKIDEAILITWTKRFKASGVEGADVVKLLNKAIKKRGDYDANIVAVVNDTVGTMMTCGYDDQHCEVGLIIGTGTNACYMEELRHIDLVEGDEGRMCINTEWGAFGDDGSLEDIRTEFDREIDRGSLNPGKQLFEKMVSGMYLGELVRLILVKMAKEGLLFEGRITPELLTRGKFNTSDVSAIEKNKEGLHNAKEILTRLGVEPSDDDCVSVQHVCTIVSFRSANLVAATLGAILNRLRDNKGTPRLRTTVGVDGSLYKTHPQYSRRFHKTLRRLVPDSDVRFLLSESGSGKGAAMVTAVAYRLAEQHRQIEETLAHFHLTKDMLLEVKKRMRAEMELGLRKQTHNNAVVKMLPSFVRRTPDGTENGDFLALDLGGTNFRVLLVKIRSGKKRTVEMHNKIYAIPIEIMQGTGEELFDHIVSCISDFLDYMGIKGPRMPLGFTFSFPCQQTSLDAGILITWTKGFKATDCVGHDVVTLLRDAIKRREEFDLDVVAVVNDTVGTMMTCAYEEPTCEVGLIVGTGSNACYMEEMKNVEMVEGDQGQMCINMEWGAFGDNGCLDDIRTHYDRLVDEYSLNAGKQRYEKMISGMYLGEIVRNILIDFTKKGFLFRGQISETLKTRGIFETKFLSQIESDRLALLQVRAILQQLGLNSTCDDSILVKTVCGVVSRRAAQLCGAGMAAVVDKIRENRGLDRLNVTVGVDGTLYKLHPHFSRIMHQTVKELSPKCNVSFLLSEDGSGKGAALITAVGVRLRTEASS
Hexokinase HKDC1, sequence (Q2TB90 whole entry, the tested form may be a part): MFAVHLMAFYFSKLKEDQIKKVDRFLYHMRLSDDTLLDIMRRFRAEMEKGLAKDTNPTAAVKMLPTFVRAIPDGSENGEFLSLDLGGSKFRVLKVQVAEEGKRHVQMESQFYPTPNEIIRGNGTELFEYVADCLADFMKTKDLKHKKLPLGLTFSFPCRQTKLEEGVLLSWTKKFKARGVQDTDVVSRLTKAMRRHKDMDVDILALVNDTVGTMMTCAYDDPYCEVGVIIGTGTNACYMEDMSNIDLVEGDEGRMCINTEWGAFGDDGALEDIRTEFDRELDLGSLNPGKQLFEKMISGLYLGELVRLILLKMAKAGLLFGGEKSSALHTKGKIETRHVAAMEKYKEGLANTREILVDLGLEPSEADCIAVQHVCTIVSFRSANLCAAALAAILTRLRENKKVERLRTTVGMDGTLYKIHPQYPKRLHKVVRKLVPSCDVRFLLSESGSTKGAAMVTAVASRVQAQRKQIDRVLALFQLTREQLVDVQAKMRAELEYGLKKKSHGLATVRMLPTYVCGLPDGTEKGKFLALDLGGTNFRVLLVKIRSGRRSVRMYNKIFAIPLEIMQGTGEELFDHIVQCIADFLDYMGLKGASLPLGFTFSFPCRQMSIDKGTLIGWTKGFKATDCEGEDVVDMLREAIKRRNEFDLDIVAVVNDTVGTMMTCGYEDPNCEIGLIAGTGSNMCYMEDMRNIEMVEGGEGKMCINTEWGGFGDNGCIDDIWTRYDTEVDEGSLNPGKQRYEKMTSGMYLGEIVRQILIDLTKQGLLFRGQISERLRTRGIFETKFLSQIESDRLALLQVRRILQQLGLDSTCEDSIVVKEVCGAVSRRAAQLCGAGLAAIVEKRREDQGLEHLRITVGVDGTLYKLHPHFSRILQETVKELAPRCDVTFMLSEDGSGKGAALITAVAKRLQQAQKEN

CCN(CC)C(=O)Cn1c2ccccc2c2nc3n(c(=O)c21)CCS3
AC50 (Candida albicans): 6.14 µM (active)
AC50 (NIH3T3): 0.596 µM (active)

COc1cc2c(cc1OC)-c1cc(NC(C)c3ccccc3)nc(=O)n1CC2 (stereo not given)
IC50 (Hexokinase-1): > 80 µM (inactive)
IC50 (Hexokinase HKDC1): > 80 µM (inactive)

Nc1nc2ccccc2n1/N=C/c1ccc(-c2ccccc2)o1
EC50 [1]: 24.4 µM (active)
EC50 [2]: 51.3 µM (active)
EC50 [3]: 5.7 µM (active)
EC50 (Streptokinase A): > 150 µM (not active)
EC50 (Streptococcus): > 150 µM (not active)
AC50 (A-375 [4]): > 35 µM (active)
AC50 (A-375 [5]): > 35 µM (active)

CN(C)c1cccc(C(=O)N/N=C/c2ccccc2F)c1
AC50 (HEK293): 3.75 µM (active)
IC50 (cells): > 67.6 µM (inactive)
IC50 [6]: > 67.6 µM (inactive)
AC50 (Escherichia coli): 134 µM (active)
